Measurements reported in paper PMC4108065, “Inflammation and pancreatic cancer: molecular and functional interactions between S100A8, S100A9, NT-S100A8 and TGFβ1” (Cell Communication and Signaling : CCS, 2014).

Legend:
Assay type in all cases: cell-based, human
BxPC3 N-Cadherin = experiment: N-cadherin immunocytochemistry, BxPC3; conditions: vs untreated cells
Description: In order to investigate immunocytochemical reactions, control and stimulated cells were formalin-fixed and paraffin embedded before obtaining […] sections from each cell block. All immunocytochemical staining was performed automatically (Bondt—maX, Menarini, Florence, Italy) with primary antibodies: E-cadherin (DakoCytomation, Glostrup, Denmark) (1:200), N-cadherin (DakoCytomation) (1:100), Twist1 (Novocastra, Newcastle-upon-Tyne, UK)(1:600). Sections were then lightly counterstained with hematoxylin. E-cadherin and N-cadherin immunoreactions were defined as immunoreactions detectable in the membrane while Twist was defined as a positive nuclear staining. At least three independent sets of experiments were performed in each experimental condition.

MiaPaCa2 = experiment: XTT cell viability assay, MiaPaCa2; conditions: 48 hours, TGFβ1 0.02 ng/ml, NT-S100A8 50 nM, S100A8 10 nM, S100A9 10 nM, alone or combined, at least three independent experiments in quadruplicate
Description: (§1) BxPC3, Capan1, MiaPaCa2, Panc1 and BxPC3-SMAD4+ cells were seeded (2000 cells per well) in 96-well cell culture plates and cultured in complete media for 24 hours. Media were then replaced with fresh cell culture media in absence (control) or in presence of TGFβ1 (0.02 ng/ml) and NT-S100A8 (50 nM), alone or combined or in absence (control) or in presence of TGFβ1 (0.02 ng/ml), S100A8 (10 nM) and S100A9 (10 nM) alone or combined. Cell growth was assessed after 48 hours using the XTT cell viability test (Roche, Milano, Italy). At least three independent experiements, each made in quadruplicate, were run. The results were expressed as percentage with respect to the median Abs450nm of control cells run in the same experimental set.

[1] = test system: mTOR Ser2481, Ser2448 and S6 Ribosomal Protein phosphorylation; experiment: mTOR signaling, western blot in PDAC cell lines; conditions: BxPC3, Capan1, MiaPaCa2, Panc1, 10 min, 10 nM S100A8, S100A9, S100A8/A9, 50 nM NT-S100A8, 0.02 ng/ml TGFβ1
Description: Five million cells were seeded in Petri dishes (ø 10 cm) and cultured for 24 hours in their respective complete media prior to starting the experiments. Cells remained non-stimulated (negative control) or were stimulated with 50 mU insulin (positive control) (Insuman Rapid, Sanofi-Aventis, Deutschland, GmbH) for 10 min; in parallel, experimental cells were stimulated with 50 nM NT-S100A8, 0,02 ng/ml TGFβ1 (ProSpec-Tany TechnoGene), 10 nM S100A8 and 10 nM S100A9 alone or combined for 10 min. Following stimulations, Petri dishes were immediately transferred into an ice bath, and the cells were washed twice with cold PBS, re-suspended in 100 μl of cold lysis buffer [20 mM Tris–HCl, pH 7.5, 150 mM NaCl, 1 mM EDTA, 1% Triton-X 100, 50 mM NaF, 10 mM Na4P2O7,1 mM Na3VO4, and 10% protease inhibitor cocktail (Sigma Aldrich SRL, Milano, Italy)]. Lysates were centrifuged for 10 min at 14,000 rpm at 4°C and, in the supernatants, total proteins were measured using the Bio-Rad protein assay (Bio-Rad Laboratories, Milano, Italy). Each experiment was performed at least in triplicate.
For each sample, 40 μg proteins were electrophoresed through 4–12% NuPAGE®NovexBis-Tris SDS–PAGE Gel or 3-8% NuPAGE®NovexTris-Acetate SDS–PAGE Gel (Invitrogen S.R.L., Life Technologies, Monza, Italy) and electrophoretically transferred to Nitrocellulose Membrane (iBlot® Transfer Stack, Invitrogen S.R.L.) by means of the iBlotTMDry Blotting System (Invitrogen S.R.L.). Following incubation for 1 hour in a blocking buffer [5% low fat powder milk re-suspended in PBS-T (PBS with 0.1% Tween-20)], membranes were incubated overnight at 4°C with the primary antibodies [antiphospho IkB-α (Ser^32) (Santa Cruz Biotechnology, Inc., Santa Cruz, CA, USA); anti-phospho-Akt (Ser^473), anti-phospho-Akt (Thr^308), anti-Akt and anti-phospho-S6 Ribosomal Protein (Ser^235/236), anti-cleaved Caspase-3, anti-phospho-Stat3 Tyr^705, anti-β-actin, anti-phospho mTOR (Ser^2448, Ser^2481) (Cell Signaling Technology, Danvers, MA, USA); anti-RAGE (R&D Systems, Minneapolis, MN, USA) ] diluted 1:5000 (β-actin), 1:2000 (mTOR, cleaved Caspase-3, Stat3) or 1:3000 (all the others) in the blocking buffer. The blots, washed three times in PBS-T for 15 min, were incubated with […] anti-rabbit (Cell Signaling Technology) or anti-goat (Sigma Aldrich) secondary antibodies and then washed three times in PBS-T for 15 min and developed with the ECL Advance Western Blot Detection Kit (GE Healthcare Technologies, Milan, Italy).

Panc1 = experiment: XTT cell viability assay, Panc1; conditions: 48 hours, TGFβ1 0.02 ng/ml, NT-S100A8 50 nM, S100A8 10 nM, S100A9 10 nM, alone or combined, at least three independent experiments in quadruplicate
Description: as §1

## S100A8: inflammatory calcium binding protein S100A8 (ProSpec-Tany TechnoGene)
BxPC3 N-Cadherin
  N-Cadherin membranous immunostaining: less marked than in control cells
MiaPaCa2
  MiaPaCa2 % to Control Mean± SEM: 102.13± 4.93 % to Control
[1]
  mTOR Ser2448 phosphorylation: induced mTOR Ser^2448 phosphorylation in all cell lines
  mTOR Ser2481 phosphorylation: Ser^2481 in BxPC3 and Capan1
Panc1
  Panc1 % to Control Mean± SEM: 93.16 ± 3.65 % to Control

## TGFβ1: transforming growth factor beta 1 (ProSpec-Tany TechnoGene)
BxPC3 N-Cadherin
  N-Cadherin membranous immunostaining: less marked than in control cells
MiaPaCa2
  MiaPaCa2 % to Control Mean± SEM: 102.11 ± 4.65 % to Control
[1]
  mTOR Ser2448 phosphorylation: inducing Ser^2481 and Ser^2448 phosphorylation in all cell lines
  mTOR Ser2481 phosphorylation: inducing Ser^2481 and Ser^2448 phosphorylation in all cell lines
Panc1
  Panc1 % to Control Mean± SEM: 88.31 ± 3.68 % to Control

## S100A9: inflammatory calcium binding protein S100A9, S100A8 binding partner
BxPC3 N-Cadherin
  N-Cadherin membranous immunostaining: less marked than in control cells
MiaPaCa2
  MiaPaCa2 % to Control Mean± SEM: 104.38± 4.09 % to Control
[1]
  mTOR Ser2448 phosphorylation: induced mTOR Ser^2448 phosphorylation in all cell lines
  mTOR Ser2481 phosphorylation: Ser^2481 in BxPC3 and Capan1
Panc1
  Panc1 % to Control Mean± SEM: 96.72± 4.43 % to Control

## NT-S100A8: 14 N-terminal aminoacid peptide of S100A8, isolated from PDAC tissues (MLTELEKALNSIID; UniProt P05109 1-14, looked up, fragment)
BxPC3 N-Cadherin
  N-Cadherin membranous immunostaining: less marked than in control cells
[1]
  mTOR Ser2448 phosphorylation: inducing Ser^2481 and Ser^2448 phosphorylation in all cell lines
  mTOR Ser2481 phosphorylation: inducing Ser^2481 and Ser^2448 phosphorylation in all cell lines
